# Laboratory results: patent publication US4005076A, “Hydrazones of 3-formylrifamycin SV” (Gruppo Lepetit S.p.A., priority 1971, dated 1977)
# Where two headings read alike, the source gives them in different places.
# How the values were obtained:
# [1] = test system: Staphylococcus aureus strain which is resistant to rifampicin (Staph. aureus Tour); test: in vitro minimal inhibitory concentration against rifampicin-resistant Staphylococcus aureus strain; type: cell-based
# Description: In particular, compounds illustrative of the invention at concentrations of about 10 to 20 μg/ml or less inhibit the growth of a Staph. aureus Tour strain resistant to rifampicin.
# One of the most important characteristics of the new hydrazones is their activity against rifampicin-resistant Staphylococcus aureus strains. Rifampicin, that is 3-(4-methyl-1-piperazinyl)iminomethylrifamycin SV, disclosed in U.S. Pat. No. 3,342,810, is the most known and widely used rifamycin derivative in therapeutic practice.
# The data of the new compounds are compared with those of representative hydrazones disclosed in U.S. Pat. No. 3,342,810.
# [2] = target: T1, sarcoma virus DNA-polymerases (SSV-DNA-P) (Woolly monkey sarcoma virus, UniProt P03359); test: effect on activity of SSV-polymerase; type: biochemical
# T1 construct: sarcoma virus DNA-polymerases (SSV-DNA-P)
# Description: Templates used in the Enzymatic Assays were the following: SSV-DNA-P: […]
# [3] = test system: mouse embryo DNA-polymerase I (ME-DNA-P1); test: effect on mouse embryo DNA-polymerase I; type: biochemical; conditions: activated Calf-Thymus DNA
# Description: (§1) Oligo dT.Poly rA. ME-DNA-P1 and ME-DNA-p2 : activated
# [4] = test system: mouse embryo DNA-polymerase II (ME-DNA-P2); test: effect on mouse embryo DNA-polymerase II; type: biochemical; conditions: activated Calf-Thymus DNA
# Description: as §1
# [5] = target: T2, mouse embryo RNA-polymerase I (ME-RNA-P1) (Mus musculus, UniProt O35134+P70700); test: effect on mouse embryo RNA-polymerase I; type: biochemical; conditions: for remaining activity at 10 µg: read-out: % Control Activity of ME-RNA-P1 at 10μg; for remaining activity at 100 µg: read-out: % Control Activity of ME-RNA-P1 at 100μg
# T2 construct: mouse embryo RNA-polymerase I (ME-RNA-P1); endogenous in cells; host or cells: mouse embryo cells
# Description: (§2) Calf-Thymus DNA. Me-RNA-P1 and ME-RNA-P2 : Single Stranded
# [6] = target: T3, mouse embryo RNA-polymerase II (ME-RNA-P2) (Mus musculus, UniProt P08775+Q8CFI7); test: effect on mouse embryo RNA-polymerase II; type: biochemical; conditions: for remaining activity at 10 µg: read-out: % Control Activity of ME-RNA-P2 at 10μg; for remaining activity at 100 µg: read-out: % Control Activity of ME-RNA-P2 at 100μg
# T3 construct: mouse embryo RNA-polymerase II (ME-RNA-P2); endogenous in cells; host or cells: mouse embryo cells
# Description: as §2
# [7] = 10μg, Single Stranded Calf-Thymus DNA
# [8] = 100μg, Single Stranded Calf-Thymus DNA
# T1 sequence (P03359 642-1310): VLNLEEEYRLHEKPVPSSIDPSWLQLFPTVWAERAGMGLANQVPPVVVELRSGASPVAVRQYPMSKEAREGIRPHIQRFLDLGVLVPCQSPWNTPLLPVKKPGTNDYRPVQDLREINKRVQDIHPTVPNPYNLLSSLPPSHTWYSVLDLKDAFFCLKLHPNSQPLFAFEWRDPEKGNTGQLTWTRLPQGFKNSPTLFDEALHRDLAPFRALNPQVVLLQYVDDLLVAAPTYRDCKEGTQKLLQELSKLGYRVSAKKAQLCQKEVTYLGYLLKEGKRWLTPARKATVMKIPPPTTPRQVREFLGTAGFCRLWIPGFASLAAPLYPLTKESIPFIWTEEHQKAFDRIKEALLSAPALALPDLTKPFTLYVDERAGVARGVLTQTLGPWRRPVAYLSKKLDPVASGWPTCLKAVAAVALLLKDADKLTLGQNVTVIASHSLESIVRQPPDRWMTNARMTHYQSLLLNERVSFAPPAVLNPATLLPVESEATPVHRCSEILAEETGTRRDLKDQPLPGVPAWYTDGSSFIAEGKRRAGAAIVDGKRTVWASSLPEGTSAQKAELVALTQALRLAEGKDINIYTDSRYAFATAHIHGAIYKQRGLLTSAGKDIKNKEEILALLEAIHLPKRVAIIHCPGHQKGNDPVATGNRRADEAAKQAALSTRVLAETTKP
Structure (SMILES),"MIC ([1]; Staphylococcus aureus, read-out: Minimal inhibitory concentration)","Minimal inhibitory concentration ([1]; in vitro, Staphylococcus aureus strain resistant to rifampicin)",% Control Activity of SSV-DNA-P at 5μg [2],% Control Activity of SSV-DNA-P at 10μg [2],% Control Activity of SSV-DNA-P at 100μg [2],% Control Activity of ME-DNA-P1 at 10μg [3],% Control Activity of ME-DNA-P1 at 100μg [3],% Control Activity of ME-DNA-P2 at 10μg [4],% Control Activity of ME-DNA-P2 at 100μg [4],remaining activity at 10 µg [5],remaining activity at 100 µg [5],remaining activity at 10 µg [6],remaining activity at 100 µg [6],"% Control Activity of SSV-DNA-P at 5μg ([2]; 5μg, template Oligo dT.Poly rA)","% Control Activity of SSV-DNA-P at 10μg ([2]; 10μg, template Oligo dT.Poly rA)","% Control Activity of SSV-DNA-P at 100μg ([2]; 100μg, template Oligo dT.Poly rA)","remaining activity at 10 µg [5, 7]","remaining activity at 100 µg [5, 8]","remaining activity at 10 µg [6, 7]","remaining activity at 100 µg [6, 8]"
"COC1C=COC2(C)Oc3c(C)c(O)c4c(O)c(c(C=NN5CCN(C)CC5)c(O)c4c3C2=O)NC(=O)C(C)=CC=CC(C)C(O)C(C)C(O)C(C)C(OC(C)=O)C1C (stereo not drawn) [Rifampicin, 3-(4-methyl-1-piperazinyl)iminomethylrifamycin SV]",> 100 µg/mL,> 100 µg/mL,94%,97%,96%,99%,56%,96%,16%,77.7%,86%,81%,99%,,,,,,,
CO[C@H]1/C=C/O[C@@]2(C)Oc3c(C)c(O)c4c(c3C2=O)C(=O)C=C(NC(=O)/C(C)=C\C=C\[C@H](C)[C@H](O)[C@@H](C)[C@@H](O)[C@@H](C)[C@H](OC(C)=O)[C@@H]1C)C4=O [rifamycin S],,,,,,84%,86%,94%,9%,,,,,88%,108%,100%,102%,90%,78%,81%
